From US20210113733A1, “FIBROUS WOUND DRESSING COMPRISING AN ANTISEPTIC” (Coloplast A/S, priority 2018, published 2021) come the findings set out here.

A short description of the series: Octenidine extractable from impregnated hydrophilic polyurethane foam, no surfactant. Type of series: physicochemical. The settings on record: for Release % water: 24 h extraction in water, UV 285 nm. The procedure:
Discs of hydrophilic polyurethane foam were impregnated by applying a known volume of octenidine-containing solution to the surface of the foam and letting it soak into the foam matrix in a liquid:foam ratio which allowed the foam to be saturated with liquid. Afterwards, the impregnated foam was dried at RT overnight.
The dried foam disc was immersed in the extraction media for 24 h and the extracted octenidine concentration was determined by UV at 285 nm

`CCCCCCCCN=c1ccn(CCCCCCCCCCn2ccc(=NCCCCCCCC)cc2)cc1` [Octenidine, octenidine]: the “Release % phosphate buffer (23 mM)” value (plain foam impregnated with 0.1 w % OCT solution, 24 h extraction) is given as 7%. For the same compound, the Release % water runs as follows: (plain foam impregnated with 0.1 w % OCT solution) 5%; (plain foam impregnated with 0.5 w % OCT solution) 1.5%; (plain foam impregnated with 1.0 w % OCT solution) 1.5%.
